From patent US20100248267A1, “METHOD FOR MEASUREMENT OF CONCENTRATION OF ANTIGEN” (JAPAN SCIENCE AND TECHNOLOGY AGENCY, priority 2007, published 2010) come the findings set out here.

The subject of data set [1] is antibody-enzyme fusion protein (VH-cpBLA-VL(219)). Nature of the data set: Activity assay of VH-cpBLA-VL(219) using Fluorocillin. The class given is biochemical. The following applies: triplicate; for change in signal intensity (fluorescence): antigen final concentration 1 μg/ml, compared with PBS. As to the method:
Activity of the above prepared antibody-enzyme fusion protein (VH-cpBLA-VL(219)) was assayed using Fluorocillin. The antigen peptide BGP-C7 at a final concentration of 0-2000 ng/ml and the antibody-enzyme fusion protein at a final concentration of 300 nM were mixed in 50 μl of PBS, and the mixture was dispensed into black microplate wells. After adding 50 μL of 2 μM Fluorocillin in PBS, the mixture was incubated at 28° C. for 60 minutes, and read for its fluorescence intensity (intensity at 535 nm with excitation light irradiation at 485 nm). Also, control experiments were performed without antibody-enzyme fusion protein, and the fluorescence intensity of these wells was used for background subtraction. […] For information, the measurement of the present experiment was performed in triplicate. Black circles in FIG. 14 indicate the average value of the measured values and the error bars indicate 1SD.
Further, similar experiments were performed using a substance other than BGP-C7 (BGP-C8, BGP-C10, ICP, TCP with each final concentration of 1 μg/ml) as antigens.

Data set [2] relates to antibody-enzyme fusion protein (VH-cpBLA-VL). Nature of the data set: β-lactamase activity change of VH-cpBLA-VL with chromogenic substrate Nitrocefin. Conditions: 5 μl of 10 μg/ml antigen, 1 mM Nitrocefin, room temperature 18 hours. Type of data set: biochemical. As to the method:
First, 5 μl of the concentrated VH-cpBLA-VL protein solution prepared in Example 9, 5 μl of 10 μg/ml ICP or TCP, and 90 μl of PBS containing 1 mM of Nitrocefin were mixed, and left in a dark place at a room temperature for 18 hours. Then, the absorbance at 490 nm of the reaction solution was measured to investigate the change in the β-lactamase activity. Further, absorbance at 490 nm was also measured when PBS was used instead of ICP or TCP (the item “PBS” in FIG. 12), or when VH-cpBLA-VL protein solution was not added (the item “Nitrocefin” in FIG. 12). […] In other words, the ICP-dependent increase of β-lactamase activity was observed.

The subject of data set [3] is wild-type BL21 (DE3, pLysS) strain. Nature of the data set: Toxicity test of ICP in E. coli (growth curve, turbidity at 660 nm). The class given is cell-based. The following applies: 100 ng/ml ICP, LB medium, 27° C. overnight, versus medium without ICP. As to the method: The BL21 (DE3, pLysS) strain was cultured at 30° C. overnight on an LB agar medium plate containing 37 μg/ml of chloramphenicol. The generated colonies were picked with a toothpick, inoculated and cultured in a 4 ml of the LB liquid culture medium containing 37 μg/ml of chloramphenicol at 27° C. overnight. 40 μl of this pre-cultured medium was inoculated and cultured in a 4 ml of the liquid culture medium containing 37 μg/ml of chloramphenicol and 100 ng/ml of ICP at 27° C. overnight, with measuring the time course of turbidity change using Mini photo 518R (TAITEC CORPORATION) at 660 nm.

Data set [4] deals with VH-split•cpBLA-VL/pET26/C43 strain. Nature of the data set: Growth assay using VH-split•cpBLA-VL expressing strain. The class given is cell-based, E. coli. As to the method:
(§1) By applying the assay of the above-mentioned Example 6, VH-split•cpBLA-VL/pET26 was used instead of VH-cpBLA-VL/pET26, and the E. coli C43 (DE3) strain (Lucigen Corporation) suitable for overexpression of a highly toxic protein was used instead of the BL21 (DE3, pLysS) strain, to investigate the expression in the strains. To be specific, 0.5 μg of VH-split•cpBLA-VL/pET26 was used for transformation for the C43 (DE3) strain, and the transformed cells were cultured on a LB agar medium plate containing 50 μg/ml of kanamycin at 30° C. overnight, and the VH-split•cpBLA-VL expressing strain (VH-split•cpBLA-VL/pET26/C43 strain) was prepared. After overnight culture, the colonies generated on the above-mentioned LB agar medium plate were picked with a toothpick, inoculated and cultured in a 4 ml of the LB liquid medium containing 50 […] (LBK) at 27° C. overnight. 10 μl of this pre-cultured medium was inoculated in 1 ml of the LBK liquid medium containing 1 mM of IPTG, 0 or 10 μg/ml of ampicillin, 10 ng/ml of ICP or TCP. After the cells were cultured at 27° C. for 45 hours, the turbidity was measured using Mini photo 518R at 660 nm.

Data set [5] has as its system antibody-enzyme fusion protein (VH-cpBLA-VL). Nature of the data set: β-lactamase activity change of VH-cpBLA-VL with fluorogenic substrate Fluorocillin. Conditions: 5 μl of 10 μg/ml antigen, 10 μM Fluorocillin, room temperature 30 minutes. Type of data set: biochemical. As to the method: Next, a similar experiment was performed using a fluorogenic substrate Fluorocillin instead of the chromogenic substrate Nitrocefin. Specifically, 5 μl of concentrated VH-cpBLA-VL protein solution prepared in Example 9, and 5 of 10 μg/ml ICP or TCP were mixed, and incubated at 4° C. for 30 minutes. Then, 90 μl of PBS containing 10 μM Fluorocillin was added, and incubated at a room temperature for 30 minutes. The fluorescence at 535 nm with 435 nm excitation was measured using a microplate reader Genios Pro (Tecan Japan Co., Ltd.). […] In other words, the increase of the ICP-dependent β-lactamase activity was observed.

For data set [6], the system named is VH-cpBLA-VL/pET26/BL21 strain. Nature of the data set: Growth assay using VH-cpBLA-VL expressing strain. Conditions: 100 μg/ml ampicillin LB medium. The class given is cell-based, E. coli. As to the method: Also, for the growth assay, ICP which is the target antigen of this antibody-enzyme fusion protein, and the thiacloprid (TCP) which is an analog of ICP with a lower cross-reactivity than ICP were used. In further detail, the assay was performed by the following procedures.
First, the strain expressing VH-cpBLA-VL (antibody-enzyme fusion protein) was prepared.
0.5 μg of VH-cpBLA-VL/pET26 was used for transformation of 100 μl of the BL21 (DE3, pLysS) strain (F-, ompT, hsdSB, (rB-, mB-), dcm, gal, λ(DE3), pLysS, Cmr), and the transformed cells were cultured on an LB agar medium plate containing 50 μg/ml of kanamycin and 37 μg/ml of chloramphenicol at 30° C. overnight, to prepare an antibody-enzyme fusion protein expressing strain (VH-cpBLA-VL/pET26/BL21 strain). After the overnight culture, colonies generated on the above-mentioned LB agar medium plate were picked with a toothpick, inoculated and cultured in a 4 ml of the LB liquid culture medium plate containing 50 μg/ml of kanamycin and 37 μg/ml of chloramphenicol at 27° C. overnight. 4 μl of this pre-cultured medium was inoculated and cultured in 4 ml of the LB liquid culture medium containing 50 μg/ml of kanamycin and 37 μg/ml of chloramphenicol, 1 mM of IPTG, 0 or 100 μg/ml ampicillin, 0 to 10 ng/ml of ICP or TCP at 27° C. for 33 hours, with measuring the time course of turbidity change using Mini photo 518R at 660 nm.

The nature of data set [7]: ELISA for antigen binding ability of the antibody-enzyme fusion protein. The following applies: ICP-BSA versus BSA coated plates. As to the method:
The following ELISA assay was performed to confirm whether the antibody-enzyme fusion protein (VH-cpBLA-VL) actually has a binding activity to the antigen (ICP).
PBS solution containing 10 μg/ml of ICP-BSA or BSA was dispensed into Falcon 3912 microplates by 100 μl each, and left at 4° C. for 16 hours. After discarding the solution from the microplates, 200 μl of PBS including 25% of Immunoblock was added and left at a room temperature for 2 hours for blocking. Next, after washing the microplates with PBS-T, […] of the purified antibody-enzyme fusion protein (VH-cpBLA-VL) prepared in the above-mentioned Example 9 and 100 μl of PBS containing 5% Immunoblock were added, and left at a room temperature for 90 minutes. In order to detect the antibody-enzyme fusion protein (VH-cpBLA-VL) bound to the solid-phase by the above preparation, the microplates were washed with PBS-T, and added with HRP labeled Penta-His (QIAGEN K.K., Tokyo) diluted in 1/2000 in PBS containing 5% Immunoblock. […] After incubation for 5 minutes in a dark place, the reaction was stopped by adding 50 μl of 3.2 N of H2SO4, and the absorbance was measured with a platereader (450 nm).
Also, the above-mentioned ELISA was applied for VH-split•cpBLA-VL(VH-BLAc and BLAn-VL) or cpBLA instead of using VH-cpBLA-VL, and the absorbance was measured similarly. […]
For orientation: ELISA stands for enzyme-linked immunosorbent assay.

Data set [8] relates to cpBLA/pET26/BL21 strain or cpBLA/pET26/C43 strain. Nature of the data set: Growth assay using cpBLA expressing strain. The class given is cell-based, E. coli. As to the method:
as §1

The mark [9] stands for this setting: less than 100 μg/ml ICP or TCP added.

As for “BGP-C10: BGP peptide detectable by open sandwich ELISA with KTM219 (EAYRRFYGPV)”, the “change in signal intensity (fluorescence)” value (“change in signal intensity” for short) in data set [1] is on record as “increase of the signal intensity”.
As for “BGP-C8: BGP peptide detectable by open sandwich ELISA with KTM219 (YRRFYGPV)”, in data set [1], the “change in signal intensity” value is “increase of the signal intensity”.
“BGP-C7: antigen peptide (osteocalcin C-terminal peptide) recognised by antibody KTM219 (RRFYGPV)”: in data set [1] (antigen 0-2000 ng/ml, 300 nM fusion protein, dose-dependent), the “change in fluorescence intensity (535 nm)” value was “significant increase of the fluorescence intensity”.
As for `O=[N+]([O-])NC1=NCCN1Cc1ccc(Cl)nc1` [ICP, imidacloprid], in data set [2], the “change in β-lactamase activity (absorbance at 490 nm)” value is given as “significant signal increase”. Besides, the “change in signal intensity” value in data set [1] is “only the same signal intensity as PBS”. The “toxicity or growth-promoting activity in E. coli” value in data set [3] is “no toxicity or growth-promoting activity”. In addition, the “growth of expressing strain (turbidity at 660 nm)” value was “ICP dependent-growth” in data set [4] (10 μg/ml ampicillin, 10 ng/ml antigen, 27° C., 45 hours); “no significant growth” in data set [4] (setting [9]); “dose-dependent growth” in data set [6] (antigen at 1 ng/ml); “dose-dependent growth” in data set [6] (antigen at 5 to 10 ng/ml). In addition, the “change in β-lactamase activity (fluorescence at 535 nm)” value in data set [5] is “significant signal increase”. In addition, the “time after initiation of measurement from which growth was observed” value in data set [6] (ICP at 1 ng/ml) is recorded as “about 30 hours”.
Turning to `N#C/N=C1\SCCN1Cc1ccc(Cl)nc1` [TCP, thiacloprid], in data set [2], the “change in β-lactamase activity (absorbance at 490 nm)” value is on record as “slight significant signal increase”. The “change in signal intensity” value in data set [1] is listed as “only the same signal intensity as PBS”. For the same molecule, the “growth of expressing strain (turbidity at 660 nm)” value in data set [4] (setting [9]) is “no significant growth”; in data set [6] (antigen at 10 ng/ml, similar to 1 ng/ml ICP), “significant growth”. Besides, the “time after initiation of measurement from which growth was observed” value in data set [6] (TCP, later than ICP of the same concentration) is “about 30 hours”.

B1: cpBLA: circularly permutated β-lactamase without antibody domains (SEQ ID NO: 13), control (protein, listed as Escherichia coli)
chain: NEAIPNDERDTTMPAAMATTLRKLLTGELLTLASRQQLIDWMEADKVAGPLLRSALPAGWFIADKSGAGERGSRGIIAALGPDGKPSRIVVIYTTGSQATMDERNRQIAEIGASLIKHWDKSHPETLVKVKDAEDQLGARVGYIELDLNSGKILESFRPEERFPMMSTFKVLLCGAVLSRIDAGQEQLGRRIHYSQNDLVEYSPVTEKHLTDGMTVRELCSAAITMSDNTAANLLLTTIGGPKELTAFLHNMGDHVTRLDRWEPELNEA
In the case of B1, the “ELISA signal regardless of the presence or absence of ICP (antigen)” value in data set [7] is “similarly low signal”. Further, the “growth of expressing strain” value is “growth was not observed in any of the samples” in data set [8] (ampicillin added) and “growth was observed regardless of the presence or absence of the antigen” in data set [8] (ampicillin not added). Besides, in data set [8] (any of the cpBLA expressing strains), the antigen-dependent growth entry is “antigen-dependent growth was not observed”.
